In BindingDB's records for PubMed 34792334 (n/a, 2021):

Assays:
[1] = target: T1, Alpha-ketoglutarate-dependent dioxygenase FTO (Homo sapiens, UniProt Q9C0B1); assay: Inhibition of FTO (unknown origin) demethylation activity using m6A7-Broccoli RNA as substrate incubated for 3 mins under shaking condition and measured after 2 hrs by fluorescence based analysis
[2] = target: T1, Alpha-ketoglutarate-dependent dioxygenase FTO; assay: Inhibition of FTO (unknown origin) demethylation activity

T1 sequence (Q9C0B1 whole entry): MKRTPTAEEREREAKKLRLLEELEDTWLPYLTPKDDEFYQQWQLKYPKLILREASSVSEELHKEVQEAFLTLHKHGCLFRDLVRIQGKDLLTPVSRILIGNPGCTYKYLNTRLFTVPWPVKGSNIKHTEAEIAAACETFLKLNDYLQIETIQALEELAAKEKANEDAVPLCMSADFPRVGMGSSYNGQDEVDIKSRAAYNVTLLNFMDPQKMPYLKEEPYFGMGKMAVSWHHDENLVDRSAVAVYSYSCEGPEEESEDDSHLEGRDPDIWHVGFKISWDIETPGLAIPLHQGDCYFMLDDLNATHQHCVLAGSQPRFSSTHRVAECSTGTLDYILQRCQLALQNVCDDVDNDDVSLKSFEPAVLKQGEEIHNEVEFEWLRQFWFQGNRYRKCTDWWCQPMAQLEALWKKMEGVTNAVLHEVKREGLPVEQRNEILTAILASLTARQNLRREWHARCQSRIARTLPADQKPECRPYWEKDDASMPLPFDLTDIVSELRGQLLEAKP

Row | IC50 [1] [µM] | IC50 [2] [µM] | Structure (SMILES)
1 | 1.2 |  | Nc1sc(-c2cncnc2)c2c1C(=O)c1ccccc1-2
2 |  | 1.2 | CCOc1nc2ccccc2nc1C(=O)Nc1ccc(N(CC)CC)cc1
